Patent publication US20220281868A1, “MACROCYCLIC DERIVATIVES AS FACTOR XIA INHIBITORS” (MEDSHINE DISCOVERY INC., priority 2019, published 2022)

Tests used:
human factor XIa = biological target: T1, human factor XIa (Homo sapiens, UniProt P03951); assay: Screening test of enzyme inhibitory activity on hFXIa; assay type: biochemical; details: substrate S-2366/S-2306, 37° C. 10 minutes, absorbance 405 nm, pH 7.4
T1 construct: Enzyme, Human Factor XIa (Human Factor XIa, Abcam, Cat #ab62411); purchased Abcam ab62411
Description: 1. Screening Test of Enzyme Inhibitory Activity on hFXIa (Human Factor XIa)
(§1) Purpose of the Experiment:
Detection of the inhibitory activity of the compounds of the present disclosure on human factor XIa
1) Experimental buffer pH 7.4
100 mM Tris-HCl (Sigma, catalog number: T2663, batch number: SLBG2775)
200 mM NaCl (Sigma, catalog number: 13423, batch number: SZBB2360V)
2) Enzymes and Substrates
Enzyme, Human Factor XIa (Human Factor XIa, Abcam, Cat #ab62411): Total amount: 50 μg. Dissolved with experimental buffer and packed separately.
Substrate S-2366 (DiaPharma, catalog number: S821090): 25 mg
3) Instruments and Consumables
SpectraMax 340PC Multifunctional Microplate Reader (Molecular Devices)
384-well black transparent reaction plate (Corning Cata #3712)
Echo Liquid Workstation (Labcyte)
Echo 384-well polypropylene compound plate (Labcyte-P-05525) was used.
Echo 384 Shallow Pore Polypropylene Compound plate (Labcyte-LP-0200, 2.5-12 μL) was used.
Multidrop automatic dispenser (Thermo Scientific)
Multidrop Consumables (Thermo Scientific-24073290) […]
7) The reaction plate was placed in SpectraMax 340PC and incubated at 37° C. for 10 minutes, and the absorbance was detected at 405 nm.
8) Data were analyzed using GraphPad Prism 5.0
% Inhibition rate=100%×[1−(sample reading-low signal average value)/(high signal average value-low signal average value)]
IC50 was analyzed using 4-factor linear regression: […]

human plasma = assay: Determination of aPTT (activated partial thromboplastin time) in human plasma in vitro; details: coagulation time
Text: 2. Determination of aPTT (Activated Partial Thromboplastin Time) in Human Plasma In Vitro
as §1
Detection of the anticoagulant effect of the compounds of the present disclosure on human plasma in vitro
1) Coagulation quality control plasma: produced by TECO, Germany, batch number: 093B-J186A
2) aPTT test solution: produced by TECO, Germany, batch number: 20002745; CaCl2): produced by TECO, Germany, batch number: 031N-J073A; DMSO: Sangon Bioengineering (Shanghai) Co., Ltd., batch number: BB02BA0001
3) Instrument: Germany Meichuang MC-4000 blood coagulation instrument
1) Sample solution preparation: 10 mM compound stock solution was prepared with DMSO, and then serially diluted with DMSO as follows: […], 2500, 625, 156.25, 39.06, 9.76, 2.44 μM; then series of concentrations were diluted with tris(hydroxymethylaminomethane) buffer (containing 5% Tween 80) 10 times for use, and the drug to plasma volume ratio was 1:9 during detection. […]
4) Test detection: According to the instructions of the kit, the sample solution to be tested or the reference solution were added into the 37° C. preheated colorimetric cup, preheated at 37° C. for 2 min, aPTT reagent was added, incubated at 37° C. for 3 min, 0.02 M CaCl2 (preheated at 37° C.) was added, and the coagulation time was recorded.

T1 sequence (P03951 388-625 limits assumed): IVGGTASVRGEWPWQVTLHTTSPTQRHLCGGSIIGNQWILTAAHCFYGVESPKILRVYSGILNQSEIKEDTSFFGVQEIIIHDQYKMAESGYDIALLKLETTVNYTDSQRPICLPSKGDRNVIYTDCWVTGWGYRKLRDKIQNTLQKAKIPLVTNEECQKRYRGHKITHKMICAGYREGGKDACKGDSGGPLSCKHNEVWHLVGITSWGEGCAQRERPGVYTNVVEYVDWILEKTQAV
T1 sequence (P03951 19-387 partner limits assumed): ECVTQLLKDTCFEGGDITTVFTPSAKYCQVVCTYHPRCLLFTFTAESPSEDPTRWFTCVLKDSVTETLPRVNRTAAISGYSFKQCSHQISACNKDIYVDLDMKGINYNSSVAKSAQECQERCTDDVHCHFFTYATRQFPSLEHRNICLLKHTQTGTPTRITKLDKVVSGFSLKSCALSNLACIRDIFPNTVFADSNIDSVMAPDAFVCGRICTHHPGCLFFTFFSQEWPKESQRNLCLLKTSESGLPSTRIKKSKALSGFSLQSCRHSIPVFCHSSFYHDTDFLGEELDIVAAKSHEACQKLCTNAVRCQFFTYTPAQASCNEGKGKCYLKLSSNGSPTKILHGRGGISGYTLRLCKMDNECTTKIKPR

| Compound | IC50 (human factor XIa) [nM] | aPTT2x (human plasma) [µM] |
| --- | --- | --- |
| C[C@@H]1CCCC(c2coc(-c3cc(Cl)ccc3-n3cc(C#N)nn3)cc2=O)c2cc(ccn2)-c2c(cnn2C(F)F)NC1=O (stereo partly shown) [Compound 4] | 2.28 |  |
| [2H]C([2H])([2H])n1ncc2c1-c1ccnc(c1)C(c1coc(-c3c(-n4cc(Cl)nn4)ccc(Cl)c3F)cc1=O)CCCC(C)C(=O)N2 (stereo not shown) [Compound 8-1] | 3.5 | 4.94 |
| Enoxaparin [reference compound] |  | 4.61 |
